Measurements reported in patent US8802597B2, “Herbicidal pyrimidines” (E I du Pont de Nemours and Company, priority 2003, dated 2014).
Read-outs that look alike come from different tables or passages of the source.

What was measured:
Type in all cases: in vivo
[1] = test system: barnyardgrass (Echinochloa crus-galli); test: Test B flooded paddy test; settings: Echinochloa crus-galli, Flood, 1000 g ai/ha; scale 0 (no effect) to 100 (complete control); read-out: Plant response rating, Barnyardgrass
How it was run: (§1)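 Rice, umbrella sedge, duck salad and barnyardgrass grown to 2-leaf stage under flooded paddy conditions and treated with formulated test chemicals. Kept in greenhouse 13–15 days, then visually rated against untreated controls on a 0–100 scale (0 no effect, 100 complete control).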

rice (Oryza sativa) = test: Test B flooded paddy test; settings: Oryza sativa, Flood, 1000 g ai/ha; scale 0 to 100; read-out: Plant response rating, Rice
How it was run: as §1

[2] = test system: umbrella sedge (Cyperus difformis); test: Test B flooded paddy test; settings: Cyperus difformis, Flood, 1000 g ai/ha; scale 0 to 100; read-out: Plant response rating, Sedge, Umbrella
How it was run: as §1

[3] = test system: duck salad (Heteranthera limosa); test: Test B flooded paddy test; settings: Heteranthera limosa, Flood, 1000 g ai/ha; scale 0 to 100; read-out: Plant response rating, Ducksalad
How it was run: as §1

[4] = test system: barnyardgrass (Echinochloa crus-galli); test: Test B pre/postemergence; settings: Echinochloa crus-galli; for pest or weed control at 125 g/ha: 125 g ai/ha; for pest or weed control at 500 g/ha: 500 g ai/ha
How it was run: (§2)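 Following sowing, compounds in a surfactant-bearing non-phytotoxic solvent were applied preemergence; emerged plants 2 to 18 cm high got postemergence treatment concurrently. Evaluation: 13 to 15 days later, greenhouse, 0–100 visual scale.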

[5] = test system: Surinam grass (Brachiaria decumbens); test: Test B pre/postemergence; settings: Urochloa decumbens; for pest or weed control at 125 g/ha: 125 g ai/ha; for pest or weed control at 500 g/ha: 500 g ai/ha
How it was run: as §2

corn (Zea mays) = test: Test B pre/postemergence; settings: Zea mays
How it was run: as §2

[6] = test system: velvetleaf (Abutilon theophrasti); test: Test B pre/postemergence; settings: Abutilon theophrasti; for pest or weed control at 125 g/ha: 125 g ai/ha; for pest or weed control at 500 g/ha: 500 g ai/ha
How it was run: as §2

[7] = test system: lambsquarters (Chenopodium album); test: Test B pre/postemergence; settings: Chenopodium album; for pest or weed control at 125 g/ha: 125 g ai/ha; for pest or weed control at 500 g/ha: 500 g ai/ha
How it was run: as §2

[8] = test system: cocklebur (Xanthium strumarium); test: Test B pre/postemergence; settings: Xanthium strumarium; for pest or weed control at 125 g/ha: 125 g ai/ha; for pest or weed control at 500 g/ha: 500 g ai/ha
How it was run: as §2

[9] = test system: wheat (Triticum aestivum); test: Test B pre/postemergence; settings: Triticum aestivum; for plant injury at 125 g/ha: 125 g ai/ha; for plant injury at 500 g/ha: 500 g ai/ha
How it was run: as §2

[10] = test system: pigweed (Amaranthus retroflexus); test: Test B pre/postemergence; settings: Amaranthus retroflexus; for pest or weed control at 125 g/ha: 125 g ai/ha; for pest or weed control at 500 g/ha: 500 g ai/ha
How it was run: as §2

[11] = test system: morningglory (Ipomoea coccinea); test: Test B pre/postemergence; settings: Ipomoea; for pest or weed control at 125 g/ha: 125 g ai/ha; for pest or weed control at 500 g/ha: 500 g ai/ha
How it was run: as §2

[12] = test system: crabgrass (Digitaria sanguinalis); test: Test B pre/postemergence; settings: Digitaria sanguinalis; for pest or weed control at 125 g/ha: 125 g ai/ha; for pest or weed control at 500 g/ha: 500 g ai/ha
How it was run: as §2

[13] = test system: giant foxtail (Setaria faberii); test: Test B pre/postemergence; settings: Setaria faberi; for pest or weed control at 125 g/ha: 125 g ai/ha; for pest or weed control at 500 g/ha: 500 g ai/ha
How it was run: as §2

[14] = test system: blackgrass (Alopecurus myosuroides); test: Test B postemergence; settings: Alopecurus myosuroides, post-emergence
How it was run: as §2

wild oat (Avena fatua) = test: Test B postemergence; settings: Avena fatua, post-emergence
How it was run: as §2

CCOC(=O)c1nc(-c2ccccc2)nc(N)c1Br [Compound 18]
pest or weed control at 1000 g/ha [1]: 0% | plant injury at 1000 g/ha (rice (Oryza sativa)): 0% | pest or weed control at 1000 g/ha [2]: 0% | pest or weed control at 1000 g/ha [3]: 80% | pest or weed control at 125 g/ha ([4]; post-emergence, Postemergence, scale 0 to 100 (0 no effect, 100 complete control), read-out: Barnyardgrass plant response rating): 0% | pest or weed control at 500 g/ha ([4]; post-emergence, Postemergence, scale 0 to 100, read-out: Plant response rating, Barnyardgrass): 0% | pest or weed control at 125 g/ha ([4]; pre-emergence, Preemergence, scale 0 to 100 (0 no effect, 100 complete control), read-out: Plant response rating, Barnyardgrass): 0% | pest or weed control at 500 g/ha ([4]; pre-emergence, Preemergence, scale 0 to 100 (0 no effect, 100 complete control), read-out: Barnyardgrass plant response rating): 0% | pest or weed control at 125 g/ha ([5]; post-emergence, Postemergence, scale 0 to 100 (0 no effect, 100 complete control), read-out: Surinam Grass plant response rating): 0% | pest or weed control at 500 g/ha ([5]; post-emergence, Postemergence, scale 0 to 100, read-out: Plant response rating, Surinam Grass): 0% | pest or weed control at 125 g/ha ([5]; pre-emergence, Preemergence, scale 0 to 100 (0 no effect, 100 complete control), read-out: Plant response rating, Surinam Grass): 0% | pest or weed control at 500 g/ha ([5]; pre-emergence, Preemergence, scale 0 to 100 (0 no effect, 100 complete control), read-out: Surinam Grass plant response rating): 0% | plant injury at 125 g/ha (corn (Zea mays); post-emergence, Postemergence, 125 g ai/ha, scale 0 to 100 (0 no effect, 100 complete control), read-out: Corn plant response rating): 0% | Corn plant response rating (crop injury, 0 = no effect, 100 = complete kill) at 500 g/ha (corn (Zea mays); post-emergence, Postemergence, 500 g ai/ha, scale 0 to 100): 0% | Corn plant response rating (crop injury, 0 = no effect, 100 = complete kill) at 125 g/ha (corn (Zea mays); pre-emergence, Preemergence, 125 g ai/ha, scale 0 to 100 (0 no effect, 100 complete control)): 0% | plant injury at 500 g/ha (corn (Zea mays); pre-emergence, Preemergence, 500 g ai/ha, scale 0 to 100 (0 no effect, 100 complete control), read-out: Corn plant response rating): 0% | pest or weed control at 125 g/ha ([6]; post-emergence, Postemergence, scale 0 to 100 (0 no effect, 100 complete control), read-out: Velvetleaf plant response rating): 20% | pest or weed control at 500 g/ha ([6]; post-emergence, Postemergence, scale 0 to 100, read-out: Plant response rating, Velvetleaf): 50% | pest or weed control at 125 g/ha ([6]; pre-emergence, Preemergence, scale 0 to 100 (0 no effect, 100 complete control), read-out: Plant response rating, Velvetleaf): 0% | pest or weed control at 500 g/ha ([6]; pre-emergence, Preemergence, scale 0 to 100 (0 no effect, 100 complete control), read-out: Velvetleaf plant response rating): 40% | pest or weed control at 125 g/ha ([7]; post-emergence, Postemergence, scale 0 to 100 (0 no effect, 100 complete control), read-out: Lambsquarters plant response rating): 70% | pest or weed control at 500 g/ha ([7]; post-emergence, Postemergence, scale 0 to 100, read-out: Plant response rating, Lambsquarters): 90% | pest or weed control at 125 g/ha ([7]; pre-emergence, Preemergence, scale 0 to 100 (0 no effect, 100 complete control), read-out: Plant response rating, Lambsquarters): 10% | pest or weed control at 500 g/ha ([7]; pre-emergence, Preemergence, scale 0 to 100 (0 no effect, 100 complete control), read-out: Lambsquarters plant response rating): 60% | pest or weed control at 125 g/ha ([8]; post-emergence, Postemergence, scale 0 to 100 (0 no effect, 100 complete control), read-out: Cocklebur plant response rating): 70% | pest or weed control at 500 g/ha ([8]; post-emergence, Postemergence, scale 0 to 100, read-out: Plant response rating, Cocklebur): 70% | pest or weed control at 125 g/ha ([8]; pre-emergence, Preemergence, scale 0 to 100 (0 no effect, 100 complete control), read-out: Plant response rating, Cocklebur): 10% | pest or weed control at 500 g/ha ([8]; pre-emergence, Preemergence, scale 0 to 100 (0 no effect, 100 complete control), read-out: Cocklebur plant response rating): 40% | plant injury at 125 g/ha ([9]; post-emergence, Postemergence, scale 0 to 100 (0 no effect, 100 complete control), read-out: Wheat plant response rating): 0% | plant injury at 500 g/ha ([9]; post-emergence, Postemergence, scale 0 to 100, read-out: Plant response rating, Wheat): 0% | plant injury at 125 g/ha ([9]; pre-emergence, Preemergence, scale 0 to 100 (0 no effect, 100 complete control), read-out: Plant response rating, Wheat): 0% | plant injury at 500 g/ha ([9]; pre-emergence, Preemergence, scale 0 to 100 (0 no effect, 100 complete control), read-out: Wheat plant response rating): 0% | pest or weed control at 125 g/ha ([10]; post-emergence, Postemergence, scale 0 to 100 (0 no effect, 100 complete control), read-out: Pigweed plant response rating): 20% | pest or weed control at 500 g/ha ([10]; post-emergence, Postemergence, scale 0 to 100, read-out: Plant response rating, Pigweed): 70% | pest or weed control at 125 g/ha ([10]; pre-emergence, Preemergence, scale 0 to 100 (0 no effect, 100 complete control), read-out: Plant response rating, Pigweed): 0% | pest or weed control at 500 g/ha ([10]; pre-emergence, Preemergence, scale 0 to 100 (0 no effect, 100 complete control), read-out: Pigweed plant response rating): 70% | pest or weed control at 125 g/ha ([11]; post-emergence, Postemergence, scale 0 to 100 (0 no effect, 100 complete control), read-out: Morningglory plant response rating): 20% | pest or weed control at 500 g/ha ([11]; post-emergence, Postemergence, scale 0 to 100, read-out: Plant response rating, Morningglory): 70% | pest or weed control at 125 g/ha ([11]; pre-emergence, Preemergence, scale 0 to 100 (0 no effect, 100 complete control), read-out: Plant response rating, Morningglory): 0% | pest or weed control at 500 g/ha ([11]; pre-emergence, Preemergence, scale 0 to 100 (0 no effect, 100 complete control), read-out: Morningglory plant response rating): 0% | pest or weed control at 125 g/ha ([12]; post-emergence, Postemergence, scale 0 to 100 (0 no effect, 100 complete control), read-out: Crabgrass plant response rating): 0% | pest or weed control at 500 g/ha ([12]; post-emergence, Postemergence, scale 0 to 100, read-out: Plant response rating, Crabgrass): 0% | pest or weed control at 125 g/ha ([12]; pre-emergence, Preemergence, scale 0 to 100 (0 no effect, 100 complete control), read-out: Plant response rating, Crabgrass): 0% | pest or weed control at 500 g/ha ([12]; pre-emergence, Preemergence, scale 0 to 100 (0 no effect, 100 complete control), read-out: Crabgrass plant response rating): 0% | pest or weed control at 125 g/ha ([13]; post-emergence, Postemergence, scale 0 to 100 (0 no effect, 100 complete control), read-out: Foxtail, Giant plant response rating): 0% | pest or weed control at 500 g/ha ([13]; post-emergence, Postemergence, scale 0 to 100, read-out: Plant response rating, Foxtail, Giant): 0% | pest or weed control at 125 g/ha ([13]; pre-emergence, Preemergence, scale 0 to 100 (0 no effect, 100 complete control), read-out: Plant response rating, Foxtail, Giant): 0% | pest or weed control at 500 g/ha ([13]; pre-emergence, Preemergence, scale 0 to 100 (0 no effect, 100 complete control), read-out: Foxtail, Giant plant response rating): 0% | pest or weed control at 125 g/ha ([14]; 125 g ai/ha, scale 0 to 100 (0 no effect, 100 complete control), read-out: Blackgrass plant response rating): 0% | pest or weed control at 500 g/ha ([14]; 500 g ai/ha, scale 0 to 100, read-out: Plant response rating, Blackgrass): 0% | pest or weed control at 125 g/ha (wild oat (Avena fatua); 125 g ai/ha, scale 0 to 100 (0 no effect, 100 complete control), read-out: Oat, Wild plant response rating): 0% | pest or weed control at 500 g/ha (wild oat (Avena fatua); 500 g ai/ha, scale 0 to 100, read-out: Plant response rating, Oat, Wild): 0%
